Structures can show the parent of a compound that is named as a salt.
Target: T1, human 5-HT4(a) (Homo sapiens, UniProt Q13639)
T1 construct: host or cells: GeneBIAzer HTR4-CRE-bla CHO-K1 cells
Assay: Evaluation of agonistic activity in CHO-K1 cells expressing human 5-HT4(a) (GeneBIAzer HTR4-CRE-bla CHO-K1 cells, beta-lactamase fluorescence ratio, EC50 from 8 concentrations)
Assay type: cell-based
Outline: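 HTR4-CRE-bla CHO-K1 cells (10^4 per well, overnight in 1% FBS medium) exposed to compound for 5 h, then beta-lactamase substrate 2 h in the dark. Fluorescence ratio at 465/535 nm after 410 nm excitation; EC50 by non-linear regression over 8 concentrations.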

T1 sequence (Q13639 1-387 isoform Q13639-2): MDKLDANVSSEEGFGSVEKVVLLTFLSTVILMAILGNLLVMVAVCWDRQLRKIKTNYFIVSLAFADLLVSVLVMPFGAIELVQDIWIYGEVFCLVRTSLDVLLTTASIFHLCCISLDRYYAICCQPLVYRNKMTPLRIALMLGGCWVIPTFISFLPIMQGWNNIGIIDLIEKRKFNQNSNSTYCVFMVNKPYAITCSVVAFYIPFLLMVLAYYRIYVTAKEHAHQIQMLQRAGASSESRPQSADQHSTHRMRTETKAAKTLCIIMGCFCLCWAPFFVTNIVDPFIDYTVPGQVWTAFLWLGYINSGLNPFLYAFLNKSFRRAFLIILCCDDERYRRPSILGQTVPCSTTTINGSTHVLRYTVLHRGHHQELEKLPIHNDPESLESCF

Structure (SMILES)	EC50 [nM]
CCCc1cc(N2CCC[C@@H](N)C2)nc(Nc2ccc(N)c([N+](=O)[O-])c2)n1 [Example 266, (R)—N^1-[4-(3-aminopiperidin-1-yl)-6-propylpyrimidin-2-yl]-3-nitrobenzene-1,4-diamine]	0.0096
CCCc1cc(N2CCC[C@@H](NCC3CC3)C2)nc(Nc2ccc(C)c(C#N)c2)n1 [Example 267, (R)-5-{4-[3-(cyclopropylmethylamino)piperidin-1-yl]-6-propylpyrimidin-2-ylamino}-2-methylbenzonitrile]	0.088
CCCc1cc(N2CCC[C@@H](NC(C)=O)C2)nc(Nc2ccc(F)c(C#N)c2)n1 [Example 268, (R)—N-{1-[2-(3-cyano-4-fluorophenylamino)-6-propylpyrimidin-4-yl]piperidin-3-yl}acetamide]	0.025
CCCc1cc(N2CCC[C@@H](N(CC)CC)C2)nc(Nc2ccc(C)c(C#N)c2)n1 [Example 269, (R)-5-[4-(3-diethylaminopiperidin-1-yl)-6-propylpyrimidin-2-ylamino]-2-methylbenzonitrile]	0.016
CCCc1cc(N2CCC[C@@H](N(CC)CC)C2)nc(Nc2ccc(F)c(C#N)c2)n1 [Example 270, (R)-5-[4-(3-diethylaminopiperidin-1-yl)-6-propylpyrimidin-2-ylamino]-2-fluorobenzonitrile]	0.148
CCCc1cc(N2CCC[C@@H](NCC)C2)nc(Nc2ccc(F)c(C#N)c2)n1 [Example 271, (R)-5-[4-(3-ethylaminopiperidin-1-yl)-6-propylpyrimidin-2-ylamino]-2-fluorobenzonitrile]	0.026
CCCCc1cc(N2CCC[C@@H](NC(C)=O)C2)nc(Nc2cccc(C#N)c2)n1 [Example 272, (R)—N-{1-[6-butyl-2-(3-cyanophenylamino)-pyrimidin-4-yl]-piperidin-3-yl}-acetamide hydrochloride]	0.011
CCCc1cc(N2CCC[C@@H](NC(C)=O)C2)nc(Nc2cccc(C#N)c2)n1 [Example 273, (R)—N-{1-[2-(3-cyanophenylamino)-6-propylpyrimidin-4-yl]piperidin-3-yl}acetamide]	0.046
CCCc1cc(N2CCC[C@@H](NC(C)=O)C2)nc(Nc2cc(N)cc(C#N)c2)n1 [Example 274, (R)—N-{1-[2-(3-amino-5-cyanophenylamino)-6-propylpyrimidin-4-yl]piperidin-3-yl}acetamide]	0.006
CCCc1cc(N2CCCC(NC(C)=O)C2)nc(Nc2ccc(N)c([N+](=O)[O-])c2)n1 (stereo not drawn) [Example 275, N-{1-[2-(4-amino-3-nitrophenylamino)-6-propylpyrimidin-4-yl]piperidin-3-yl}acetamide]	0.0034
CCCc1cc(N2CCCC(NC(C)=O)C2)nc(Nc2ccc(F)c(N)c2)n1 (stereo not drawn) [Example 276, N-{1-[2-(3-amino-4-fluorophenylamino)-6-propylpyrimidin-4-yl]piperidin-3-yl}acetamide]	0.018
CCCc1cc(N2CCC[C@@H](NC(C)=O)C2)nc(Nc2ccc(F)c(C(F)(F)F)c2)n1 [Example 277, (R)—N-{1-[2-(4-fluoro-3-trifluoromethylphenylamino)-6-propylpyrimidin-4-yl]piperidin-3-yl}acetamide]	0.014
CCCc1cc(N2CCC[C@@H](NC(C)=O)C2)nc(Nc2cc(N)cc(C(F)(F)F)c2)n1 [Example 278, (R)—N-(1-{2-[3-amino-5-(trifluoromethyl)phenylamino]-6-propylpyrimidin-4-yl}piperidin-3-yl)acetamide]	0.01
CCCc1cc(N2CCC[C@@H](NC(C)=O)C2)nc(Nc2ccc(N)c(C(F)(F)F)c2)n1 [Example 279, (R)—N-(1-{2-[4-amino-3-(trifluoromethyl)phenylamino]-6-propylpyrimidin-4-yl}piperidin-3-yl)acetamide]	0.014
CCCc1cc(N2CCC[C@@H](NC)C2)nc(Nc2ccc(F)c(C#N)c2)n1 [Example 282, (R)-2-fluoro-5-[4-(3-methylaminopiperidin-1-yl)-6-propylpyrimidin-2-ylamino]benzonitrile]	0.073
CCCc1cc(N2CCC[C@@H](NC)C2)nc(Nc2ccc(C)c(C#N)c2)n1 [Example 283, (R)-2-methyl-5-[4-(3-methylaminopiperidin-1-yl)-6-propylpyrimidin-2-ylamino]benzonitrile]	0.0084
CCCc1cc(N2CCC[C@@H](NC)C2)nc(Nc2cc(N)cc(C(F)(F)F)c2)n1 [Example 284, (R)—N^1-[4-(3-methylaminopiperidin-1-yl)-6-propylpyrimidin-2-yl]-5-(trifluoromethyl)benzene-1,3-diamine]	0.0032
CCCc1cc(N2CCC[C@@H](NC)C2)nc(Nc2ccc(N)c(C(F)(F)F)c2)n1 [Example 285, (R)—N^1-[4-(3-methylaminopiperidin-1-yl)-6-propylpyrimidin-2-yl]-3-(trifluoromethyl)benzene-1,4-diamine]	0.005
CCCc1cc(N2CCC[C@@H](NC)C2)nc(Nc2cc(N)cc(C#N)c2)n1 [Example 286, (R)-3-amino-5-[4-(3-methylaminopiperidin-1-yl)-6-propylpyrimidin-2-ylamino]benzonitrile]	0.0044
CCCc1cc(N2CCC[C@@H](NC)C2)nc(Nc2ccc(F)c(C(F)(F)F)c2)n1 [Example 287, (R)-(4-fluoro-3-trifluoromethylphenyl)-[4-(3-methylaminopiperidin-1-yl)-6-propylpyrimidin-2-yl]amine]	0.026
CCCc1cc(N2CCC[C@@H](NCC)C2)nc(Nc2ccc(N)c([N+](=O)[O-])c2)n1 [Example 288, (R)—N^1-[4-(3-ethylaminopiperidin-1-yl)-6-propylpyrimidin-2-yl]-3-nitrobenzene-1,4-diamine]	0.0046
CCCc1cc(N2CCC[C@@H](NCC)C2)nc(Nc2ccc(F)c(N)c2)n1 [Example 289, (R)—N^1-[4-(3-ethylaminopiperidin-1-yl)-6-propylpyrimidin-2-yl]-4-fluorobenzene-1,3-diamine]	0.0065
CCCc1cc(N2CCC[C@@H](NCC)C2)nc(Nc2cc(N)cc(C(F)(F)F)c2)n1 [Example 290, (R)—N^1-[4-(3-ethylaminopiperidin-1-yl)-6-propylpyrimidin-2-yl]-5-(trifluoromethyl)benzene-1,3-diamine]	0.0041
CCCc1cc(N2CCC[C@@H](NCC)C2)nc(Nc2ccc(N)c(C(F)(F)F)c2)n1 [Example 291, (R)—N^1-[4-(3-ethylaminopiperidin-1-yl)-6-propylpyrimidin-2-yl]-3-(trifluoromethyl)benzene-1,4-diamine]	0.0028
CCCc1cc(N2CCC[C@@H](NCC)C2)nc(Nc2cc(N)cc(C#N)c2)n1 [Example 292, (R)-3-amino-5-[4-(3-ethylaminopiperidin-1-yl)-6-propylpyrimidin-2-ylamino]benzonitrile]	0.019
CCCCc1cc(N2CCC[C@@H](N)C2)nc(Nc2ccc(C)c(C#N)c2)n1 [Example 293, (R)-5-[4-(3-aminopiperidin-1-yl)-6-butylpyrimidin-2-ylamino]-2-methylbenzonitrile]	0.023
CCCCc1cc(N2CCC[C@@H](N)C2)nc(Nc2ccc(F)c(C#N)c2)n1 [Example 294, (R)-5-[4-(3-aminopiperidin-1-yl)-6-butylpyrimidin-2-ylamino]-2-fluorobenzonitrile]	0.108

— US9850227B2 (YUHAN CORPORATION, priority 2011, dated 2017)
